Entries after “also recorded” stand apart in the source; their conditions may differ. Positions of bridges follow the written chain, without caps; N, C: chain ends. Residues, ends and D or L forms follow the SMILES beside them.
Experiments:
[1] = system: hiPS-CMs (clone C2a, ventricular-like); format: cell-based, human
Experimental: Although the effect of BeKm-1 on APD90 was expected from a block of hERG channels, the other effects (i.e., membrane depolarization, reduction in AP frequency, and decrease of maximal upstroke velocity) are most likely a secondary consequence of the absence of IK1 in hiPS-CMs due to incomplete maturation level of these cells during the differentiation process (a recurrent problem in differentiating hiPS into cardiomyocytes). The 5 nM concentration of BeKm-1 was chosen to spare a fraction of the hERG channels in these cells. Therefore, we also tested a higher concentration (100 nM) in order to affect all hERG channels. […] This observation is coherent with the fact that a stronger IK1 current would be needed in hiPS-CMs to maintain a more negative membrane potential typical for CMs. […] In this technique, a current density of 2.8 pA/pF is injected in order to successfully reach an RMP value of −80 mV. […] Representative APs, paced at a constant cycling length of 700 ms with IK1, are shown before and after the application of 5 nM BeKm-1 (Figure 3A,B). […] Logically, these APs were excluded from further analysis of AP parameters. IK1 in silico injection efficiently allowed for setting a real resting membrane potential (RMP) at −80 mV in these hiPS-CMs, causing the cessation of spontaneous APs (not shown). As a result of IK1 taking the relay over IKr, there was no effect of 5 nM BeKm-1 on RMP (Figure 3C). […] The average prolongation of APD90 and variability is also detailed cell by cell (Figure S3).
(§1) hiPS-CMs: All experiments were performed on the human-induced pluripotent stem cell (hiPSC) clone C2a that has been previously characterized, including cardiac differentiation and electrophysiology data. Cells were expanded on stem cell-qualified matrigel-coated plates (0.05 mg/mL; BD Bioscience, Le Pont de Claix, France) and cultured in StemMACS iPS-BREW XF medium (Miltenyi Biotec, Paris, France). Cells were passaged every […] using Gentle Cell Dissociation Buffer (StemCell Technologies, Grenoble, France). Prior to differentiation, cells were cultured as a monolayer in StemMACS iPS-brew supplemented with 1 × Y-27632 Rho-associated, coiled-coil containing protein kinase (ROCK) inhibitor (StemCell Technologies, Grenoble, France). When hiPSCs reached proper confluence, they were differentiated into cardiomyocytes using previously described « Matrix sandwich » protocol. At day 20 ± 1 of differentiation, beating cardiomyocytes were manually dissected and isolated from non-beating cells. Briefly, cardiomyocytes were washed with phosphate-buffered saline (PBS) and treated with TrypLE Express (10x) (Thermo Fisher Scientific, Illkirch-Graffenstaden, France) for 5 min at 37 °C. The enzyme was inactivated by adding RPMI1640 medium containing 20% (vol/vol) KnockOut Serum Replacement (KSR) (Thermo Fisher Scientific, Illkirch-Graffenstaden, France). The supernatant was removed, and cells were suspended in RPMI1640 medium containing 20% (vol/vol) KSR and ROCK inhibitor. Then, the cells were plated on specific supports suitable for functional assessments.
Manual patch clamp: Single-cell dissociated hiPS-CMs were plated at low density on matrigel-coated 35 mm Petri dishes (Nunc from Thermo Fisher Scientific, Illkirch-Graffenstaden, France). Electrophysiological experiments were performed 12 to 14 days after dissociation. APs were recorded in the current-clamp mode, using the amphotericin-B-perforated patch-clamp technique. All experiments were conducted at 37 °C. APs were recorded either at basal state (spontaneous APs) or using the dynamic patch-clamp method to electronically mimic the expression of the inward rectifier potassium current, IK1 [23, 24]. The resting membrane potential (RMP) was set to −80 ± 5 mV by injecting 2 to 2.8 pA/pF in silico IK1 density. This level of current was set so that about 80% of the ventricular-like hiPS-CMs could reach these physiological RMP values. […]

hiPS-CMs monolayer = assay: Electric field potential of hiPS-CM monolayers (CardioExcyte96); format: cell-based, human
Text: The excitability abnormalities recorded on single hiPS-CM APs should translate into larger abnormalities when these cells are interacting with each other in monolayers. To assess this issue, we investigated the electrical excitability of hiPS-CM monolayers using the CardioExcyte96 system (Nanion). This system monitors both the electric field potential (EFP), which reflects the concerted electrical activity of the cell monolayer, and the impedance changes due to cell contractions, which will be described below. […] As saturating concentrations of BeKm-1 (100 nM) induced the arrest of spontaneous APs in individual cells, we were interested to see what may happen on a monolayer of hiPS-CMs.
as §1, with “The supernatant was removed, and cells were suspended in RPMI1640 medium containing 20% (vol/vol) KSR and ROCK inhibitor. Then, the cells were plated on specific supports suitable for functional assessments.” left out
The beating properties and the electrical field potentials of hiPS-CMs were evaluated with a CardioExcyte96 system. […] Meanwhile, cells were monitored to ensure the full stabilization of beating parameters until BeKm-1 was tested at various concentrations ([…]). Tfall and Trise were determined as the time between 10% and 90% of contraction or relaxation, respectively. Pulse width (PWx) was determined as the time corresponding to the width of the signal at 90% of relaxation. Electric field potentials (EFPs) were recorded using CardioExcyte96 system. For both contraction and EFPs, 10 sequences of 30 s of acquisition were analyzed before and after BeKm-1 addition. […]

[2] = 5 nM, dynamic clamp, paced every 700 ms

CC[C@H](C)[C@H](NC(=O)[C@H](CC(=O)O)NC(=O)[C@@H](NC(=O)[C@@H]1CCCN1C(=O)[C@@H](N)CCCNC(=N)N)[C@@H](C)O)C(=O)N[C@@H](CCCCN)C(=O)N[C@H]1CSSC[C@@H]2NC(=O)[C@H](CCCNC(=N)N)NC(=O)CNC(=O)[C@H](CC(N)=O)NC(=O)[C@H]([C@@H](C)O)NC(=O)[C@H](CCCCN)NC(=O)CNC(=O)[C@H](Cc3ccccc3)NC(=O)[C@H](CCCNC(=N)N)NC(=O)[C@H](CO)NC(=O)[C@H](CCCCN)NC(=O)[C@@H]3CSSC[C@@H](C(=O)N[C@@H](Cc4ccccc4)C(=O)O)NC(=O)[C@H](CC(=O)O)NC(=O)[C@H](CSSC[C@H](NC(=O)[C@H](CCC(N)=O)NC(=O)[C@H](Cc4ccc(O)cc4)NC(=O)[C@H](CO)NC(=O)[C@H](CCC(=O)O)NC(=O)[C@H](CO)NC1=O)C(=O)N[C@@H](Cc1ccccc1)C(=O)N1CCC[C@H]1C(=O)N[C@@H](C(C)C)C(=O)N3)NC(=O)[C@H](Cc1ccccc1)NC(=O)CNC(=O)[C@H](CC(N)=O)NC(=O)[C@H](C(C)C)NC2=O [BeKm-1] (H-RPTDIKCSESYQCFPVCKSRFGKTNGRCVNGFCDCF-OH; disulfide 7-28, 13-33, 17-35 (inferred); N-terminus and C-terminus assumed)
APD90 prolongation ([1]; 5 nM vs vehicle, average, dynamic clamp): 29% | resting membrane potential (RMP) ([1]; 5 nM, RMP set to −80 mV by IK1 injection, paced every 700 ms): no effect | APD90 ([1]; 5 nM, dynamic clamp, cycle length 700 ms, 37 °C, vehicle 121.9 ± 11.0 ms, n = 10, mean ± SEM): 156.7 ± 16.9 ms | AP overshoot [1, 2]: no significant effect | APD30 and APD50 [1, 2]: did not alter | maximal upstroke velocity [1, 2]: no significant effect | APD90 variability ([1]; 5 nM, dynamic clamp, Poincaré plot): greater APD90 variability | EFP duration (hiPS-CMs monolayer; 2 nM, 37 °C, vehicle 2.8 ± 0.1 s, n = 5, mean ± SEM): 3.4 ± 0.2 s | spontaneous depolarization in EFP (hiPS-CMs monolayer; 2 nM, Figure 4A): presence of spontaneous depolarization | EFP arrhythmic waveforms (hiPS-CMs monolayer; 100 nM): sustained waveforms of tachyarrhythmia, and TdP-like polymorphic waveforms; also recorded: increase in beats frequency and fibrillation-like pattern | EFP frequency (hiPS-CMs monolayer; 100 nM, 37 °C, vehicle 0.2 ± 0.1 Hz, n = 5, mean ± SEM, significant): 0.7 ± 0.1 Hz

Reference: PMC7582727, “Functional Impact of BeKm-1, a High-Affinity hERG Blocker, on Cardiomyocytes Derived from Human-Induced Pluripotent Stem Cells” (International Journal of Molecular Sciences, 2020)
